Reference: patent US20070249588A1 (priority 2003, published 2007)

Target: α7 nAChR subtype (Rattus norvegicus, UniProt Q05941)
Format: binding

Sequence of α7 nAChR subtype (Q05941 23-502 limits assumed): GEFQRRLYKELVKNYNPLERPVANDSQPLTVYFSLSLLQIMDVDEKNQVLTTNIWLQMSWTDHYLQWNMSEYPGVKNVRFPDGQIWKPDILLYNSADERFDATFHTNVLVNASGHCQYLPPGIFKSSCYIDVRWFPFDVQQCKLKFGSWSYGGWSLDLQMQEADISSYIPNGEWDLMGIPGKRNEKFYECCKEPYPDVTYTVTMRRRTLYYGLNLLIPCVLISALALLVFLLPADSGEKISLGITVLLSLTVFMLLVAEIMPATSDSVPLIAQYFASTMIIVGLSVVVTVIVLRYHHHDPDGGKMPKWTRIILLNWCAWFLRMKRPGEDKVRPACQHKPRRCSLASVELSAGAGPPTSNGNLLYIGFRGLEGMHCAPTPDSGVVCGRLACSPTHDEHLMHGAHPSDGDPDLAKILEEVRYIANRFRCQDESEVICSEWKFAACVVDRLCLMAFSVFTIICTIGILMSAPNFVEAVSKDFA

^125I-α-Bungarotoxin [^125I-α-BTX]
Kd: 1.67 nM
